According to patent US10004809B2, “Precise delivery of therapeutic agents to cell mitochondria for anti-cancer therapy” (UNIVERSITY OF GEORGIA RESEARCH FOUNDATION, INC., priority 2013, dated 2018):

Tests used:
PC3 cells [1] = assay: MTT cytotoxicity assay; format: cell-based, Human; settings: for IC50: MTT, 72 h incubation
Procedure: (§1) The cytotoxic behaviors of MITO-DCA, TPP-DCA, Na-DCA, and TPP-Tris-(OH)3 were evaluated using the MTT assay against PC3, DU145, LNCaP, and MSC cells. Cells (2000 cells/well for PC3, DU145, and MSC cells; 5000 cells/well for LNCaP) were seeded on a 96-well plate in 100 μL of desired medium and incubated for 24 h. The cells were treated with different DCA compounds and TPP-Tris-(OH)3 at varying concentrations and incubated for 72 h at 37° C. The cells were then treated with 20 μL of MTT (5 mg/mL in PBS) for 5 h. The medium was removed, the cells were lysed with 100 μL of DMSO, and the absorbance of the purple tormazan was recorded at 550 nm using a Bio-Tek Synergy HT microplate reader. Each well was performed in triplicate. All experiments were repeated three times. Cytotoxicity was expressed as mean percentage increase relative to the unexposed control±SD. Control values were set at 0% cytotoxicity or 100% cell viability. Cytotoxicity data (where appropriate) was fitted to a sigmoidal curve and a three parameters logistic model used to calculate the IC50, which is the concentration of chemotherapeutics causing 50% inhibition in comparison to untreated controls. The mean IC50 is the concentration of agent that reduces cell growth by 50% under the experimental conditions and is the average from at least three independent measurements that were reproducible and statistically significant. The IC50 values were reported at ±99% confidence intervals. This analysis was performed with GraphPad Prism (San Diego, U.S.A).

DU145 cells = assay: MTT cytotoxicity assay; format: cell-based, Human; settings: for IC50: MTT, 72 h incubation
Procedure: as §1

LNCaP cells = assay: MTT cytotoxicity assay; format: cell-based, Human; settings: for IC50: MTT, 72 h incubation
Procedure: as §1

PC3 cells [2] = assay: CELLTITER-GLO luminescent intracellular ATP quantification; format: cell-based, Human; settings: for Increase in intracellular ATP levels: 3 h; for ATP level and cell growth at high concentration: PC3 cells, 6 h
Procedure: A decrease in cancer cell lactate levels is expected to be associated with an increase in ATP production. Intracellular ATP levels in PC3, LNCaP, and MSC cells treated with MITO-DCA (20 μM), TPP-DCA (60 μM), and Na-DCA (60 μM) were measured.
PC3 or MSC cells were plated at a density of 10,000 cells per well in 96-well plates compatible with the luminometer used in 100 μL media. […] Control wells containing medium without cells were prepared to obtain a value for background luminescence. Plates were then equilibrated at room temperature for ˜30 min. A volume of CELLTITER-GLO™ reagent equal to the volume of cell culture medium present in each well was added, this mixtures were well mixed for 2 min using a shaker to induce cell lysis. The plates were allowed to incubate at room temperature for 10 min to stabilize luminescent signal. Luminescent was recorded using a plate reader. ATP quantification was carried out from a standard curve using ATP disodium salt hydrate.

MSC cells [3] = assay: MTT cytotoxicity assay on normal cells; format: cell-based, Human; settings: 72 h
Procedure: as §1

PC3 cells [4] = assay: JC-1 assay of mitochondrial membrane potential (Δψm), live cell imaging; format: cell-based, Human; settings: for JC-1 Green:Red fluorescence ratio: 6 h
Excerpt: An early indication of the initiation of cellular apoptosis is the collapse in the electrochemical gradient across the mitochondrial membrane, as measured by the change in the Δψm (Perry et al., BioTechniques 50:98-115, 2011). […] The potential-sensitive color shift is due to the concentration dependent formation of red fluorescent “J aggregates.” Mitochondrial depolarization is indicated by an increase in the green/red fluorescence intensity ratio. Live cell imaging of prostate cancer (PCa) PC3 cells treated with Na-DCA (150 μM), TPP-DCA (150 μM), or MITO-DCA (50 μM), followed by staining with JC-1, and a comparative analysis of the JC-1 green/red fluorescence ratio from PC3 cells in response to these three DCA analogues are represented in FIG. 3. […] Quantification of fluorescence intensities was carried out using ImageJ and the corrected total cell fluorescence (CTCF) values are represented as histograms (FIG. 3).
PC3 cells were cultured on a live cell imaging glass bottom dish at a density of 1×10^6 cells/mL and allowed to grow overnight at 37° C. Cells were treated with 150 μM Na-DCA, 150 μM TPP-DCA, and 50 μM MITO-DCA for 6 h at 37° C. A solution of JC-1 reagent (10 μg/mL in RPMI) was added and incubation was carried out at 37° C. for 20 min. The cells were washed 3 times with PBS, and live cell imaging was performed in phenol red free RPMI media.

PC3 cells [5] = assay: Annexin V/PI apoptosis detection by flow cytometry; format: cell-based, Human; settings: 50 μM
Procedure: (§2) In order to determine whether the enhanced activity of MITO-DCA upon targeting this compound to the mitochondria of cells was due to apoptosis rather than necrosis, an ALEXA FLUOR™ 488-Annexin-V and propidium iodide (PI) cell staining in PC3 and MSC cells was carried out and data were analyzed using flow cytometry (FIG. 4B). As controls, etoposide treated cells were used as early apoptosis population and H2O2 treated cells were marked as late apoptotic or necrotic population. […] There were no late apoptotic or necrotic cells observed with these compounds.
(§3) PC3 and MSC cells were seeded at a density of 1×10^6 cells/mL on each well of a six well plate and allowed to grow overnight. Cells were treated with 50 μM Na-DCA, 150 μM TPP-DCA, and 150 μM MITO-DCA for 12 h at 37° C. As positive controls, etoposide (100 μM, incubation time: 12 h) for apoptosis and H2O2 (1 mM, incubation time: 45 min) for necrosis were used. The cells were trypsinized, repeatedly washed, and centrifuged at 1,800 RPM for 3 min, and the supernatants were discarded. Cell density was determined and cells were resuspended in 1× annexin-binding buffer to ˜1×10^6 cells/mL preparing a sufficient volume to have 100 µL per assay. To 100 μL of cell suspension, 5 μL ALEXA FLUOR™ 488 annexin V and 1 µL 100 μg/mL PI working solution were added and incubated for 15 min at room temperature. After the incubation period, 400 μL 1× annexin-binding buffer was added to each sample, samples were gently mixed keeping the samples on ice and the samples were analyzed on the flow cytometer immediately.

MSC cells [6] = assay: Annexin V/PI apoptosis detection by flow cytometry; format: cell-based, Human
Procedure: as §2, §3

Solubility study = format: physicochemical
Procedure: Solubility of MITO-DCA in water was checked by preparing different concentration of MITO-DCA ranging from 2 μM to 5 mM in DMSO (0.1-2.5%)-phosphate buffered saline (PBS). At all concentrations, MITO-DCA was transparent.

With O=C(CCCCC[P+](c1ccccc1)(c1ccccc1)c1ccccc1)NC(COC(=O)C(Cl)Cl)(COC(=O)C(Cl)Cl)COC(=O)C(Cl)Cl.[Br-] [MITO-DCA] the IC50 (PC3 cells [1]) was 17 ± 1 µM, the “Activity relative to Na-DCA” value (PC3 cells [1]; PC3 cells, from IC50) was “three orders of magnitude more active” and the “Activity relative to Na-DCA” value (DU145 cells; DU145 cells, from IC50) was “three orders of magnitude more activity”. For the same molecule, the IC50 (DU145 cells) was 42 ± 2 µM, the “Activity relative to Na-DCA” value (LNCaP cells; LNCaP cells, from IC50) was “three orders of magnitude more activity” and the IC50 (LNCaP cells) was 30 ± 6 µM. For the same molecule, the “Increase in intracellular ATP levels” value (PC3 cells [2]; 20 μM) was roughly 44%, the “ATP level and cell growth at high concentration” value (PC3 cells [2]; 50 μM) was “ATP reduction and cell growth inhibition” and the “Toxicity in normal MSC cells” value (MSC cells [3]) was “did not show any toxic effects”. The “Change in Δψm (JC-1 imaging)” value (PC3 cells [4]; 50 μM) was “induced marked changes in Δψm”, the “JC-1 Green:Red fluorescence ratio” value (PC3 cells [4]; 50 μM) was 3.96±0.96 and the “Apoptosis (annexin V/PI)” value (PC3 cells [5]) was “complete early apoptosis”. For the same molecule, the “Apoptosis (annexin V/PI)” value (MSC cells [6]; 50 μM) was “did not undergo apoptosis”, the “Solubility in water (appearance of solution)” value (Solubility study; 2 μM to 5 mM in DMSO (0.1-2.5%)-phosphate buffered saline (PBS)) was “transparent” and the “Solubility in an organic solvent” value (Solubility study; compared with DCA) was “far higher than that of DCA”.

In the case of O=C(OCCC[P+](c1ccccc1)(c1ccccc1)c1ccccc1)C(Cl)Cl.[Br-] [TPP-DCA], the IC50 (PC3 cells [1]) is reported as 68 ± 1 µM, the “Times less active than MITO-DCA” value (PC3 cells [1]; PC3 cells, from IC50) is reported as roughly 4 times and the “Times less active than MITO-DCA” value (DU145 cells; DU145 cells, from IC50) is reported as roughly 10 times. The IC50 (DU145 cells) was 468 ± 49 µM, the “Times less active than MITO-DCA” value (LNCaP cells; LNCaP cells, from IC50) was roughly 10 times and the IC50 (LNCaP cells) was 302 ± 37 µM. For the same molecule, the “Increase in intracellular ATP levels” value (PC3 cells [2]; 60 μM) was “did not show any significant increase”, the “ATP level and cell growth at high concentration” value (PC3 cells [2]; 150 μM) was “ATP reduction and cell growth inhibition” and the “Toxicity in normal MSC cells” value (MSC cells [3]) was “did not show any toxic effects”. The “Change in Δψm (JC-1 imaging)” value (PC3 cells [4]; 150 μM) was “showed red fluorescence in most cells”, the “JC-1 Green:Red fluorescence ratio” value (PC3 cells [4]; 150 μM) was 0.49±0.09 and the “Apoptosis (annexin V/PI)” value (MSC cells [6]; 150 μM) was “did not undergo apoptosis”.
